Results reported in patent US8088889B2, “Teneurin c-terminal associated peptides (TCAP) and uses thereof” (priority 2002, dated 2012).
Entries after “also recorded” stand apart in the source; their conditions may differ. Ends that are not written are not given here.

Tests used:
Gn11 cells [1] = assay: cAMP accumulation in Gn11 immortalized neurons (Example 12); assay type: cell-based, mouse
Experimental: (§1) Gn11 immortalized neurons were cultured as previously reported (Tellam et al., 1998) Direct cAMP measurements were performed with the nonacetylated version of a commercial kit (Assay Designs, Ann Arbor, Mich.). After starved by serum-free DMEM for 1 hr and replaced with fresh DMEM without serum, cells were treated for 15 min with TCAP, urocortin or vehicle±CRFR1 antagonist PD171729 in the continued presence of forskolin (1_M) and IBMX (100_M. Protein assays: Total protein was determined using the BCA protein assay method (Pierce Co). MTT Assays: Gn11 cells were seeded into 96-well plates and cultured in full serum DMEM until the cells were 30% confluent. Vehicle, 1 nM, 10 nM or 100 nM TCAP-1 were added into each group (n=8). (FIG. 25A) The MTT assay (Sigma Chemicals) was performed at 0, 6, 12, 24 and 48 hours. Flow Cytometry: DNA content of the Gn11 cells was quantified by staining with propridium iodide and analyzed on a FACSCAN flow cytometer (Beckman Instruments).

N38 hypothalamic cells = assay: Microarray gene expression in N38 hypothalamic cells; assay type: cell-based, mouse; details: 1 nM
Experimental: Total RNA (TRNA) was isolated from 3 independent treated and untreated N38 hypothalamic cell cultures, pooled (to reduce the noise), utilizing Trizol Reagent (GIBCO/BRL) following the manufacturer's protocol. The quality of total RNA was assessed using an Agilent 2100 Bioanalyzer (version A.02.01S1232, Agilent Technologies). Only RNA with the OD ratio of 1.99-2.0 at 260/280 was used.
Hybridizations were performed on the Mouse MU74Av2 GeneChip Set (Affymetrix, Santa Clara, Calif.). Samples were prepared for hybridization according to Affymetrix instructions. Briefly, a primer encoding the T7 RNA polymerase promoter linked to oligo-dT17 was used to prime double-stranded cDNA synthesis from each mRNA sample using Superscript II RNase H^− reverse transcriptase (Life Technologies, Rockville, Md.). Each purified (Qiaquick kit, Qiagen) double-stranded cDNA was in vitro transcribed using T7 RNA polymerase (T7 kit; Enzo), incorporating biotin-UTP and biotin-CTP (Enzo Biochemicals, New York, N.Y.) into the cRNAs, followed by purification using RNEasy (Qiagen) and quantitated by measuring absorption at 260 nm/280 nm. Samples were fragmented and hybridized to the Chip for 16 h at 45° C. and scanned (GeneArray scanner, Affymetrix). MicroArray Suite Version 5 (MASv5; Affymetrix) was used to scale intensities across the Genechips to 150 fluorescence units, and to determine expression values for each gene on the chip. The expression value for each gene was determined by calculating the average of differences (perfect match intensity minus mismatch intensity) of the probe pairs in use for the gene.
Gene analysis software: Data analysis was performed using two independent softwares, GeneChip and GeneSpring. To identify differentially expressed transcripts, pairwise comparison analyses were carried out with MicroArray Suite Version 5 MicroArray Suite Version 5 (MASv5; Affymetrix). This approach, which is based on the Mann-Whitney pairwise comparison test, allows the ranking of results by concordance, as well as the calculation of significance (P value) of each identified change in gene expression. Statistically significant genes (P<0.05) were selected for further analysis. Moreover, statistically significant changes in mean expression values were determined by importing the data from MASv5 into GeneSpring 5 (Silicon Genetics, Redwood City, Calif.). A stepwise process was followed, first with normalizations. A per-chip followed by a per-gene normalization in order to facilitate direct comparison of biological differences. Next, a second method of filter using Affymetrix data and p value with cut-off of P<0.005 generated 4,841 genes which were used for subsequent analysis utilizing Hierarchical Clustering, k-means, Self Organization Map (SOM) utilizing GeneSpring 5.0.
RNAs isolated from treated and untreated cells were analyzed on oligonucleotide arrays representing 12,884 mouse genes (Affymetrix, http://www.affymetrix.com). Standard filtering (p<0.005) and hierarchical clustering algorithm (average linage method: GeneSpring software—Silicon Genetics) identified significant changes in the expression of 4, 841/12,885 genes with 166 genes showing 1.5 fold down-regulation and 35 genes up-regulation in the TCAP-1-treated cells compared to the untreated cells. […] A G-protein coupled receptor-related signal transduction pathway is indicated by the regulation of genes, CREM, AKAP8, AKAP95 and PDE6A. […] The upregulation in inducible nitric oxide (INOS), a intracellular voltage-gated chloride channel (CLCN3) and the serotonin transporter (SLC6A4) may reflect the down stream actions of cAMP-mediated signal cascade and indicates the potential for TCAP to be involved in neuronal signaling systems. A role in interneuron communication by TCAP is also indicated by the modulation of genes associated with the regulation of vesicle trafficking. […]

rats = assay: Acoustic startle response after TCAP-1 injection; assay type: in vivo, rat
Text: Male Wistar rats (250-275 g), were surgically implanted with cannulae (23 gauge) bilaterally into the basolateral nuclei of the amydala (AP −2.8, ML +/−5.0, DV −7.2 mm, from bregma). One week later, the animals were habituated to the acoustic startle reflex (ASR) chambers (MED Associates, grid rod cage measuring 7.5″×3.6″×4.2″), consisting of 25 trials of 120 dB stimuli presented randomly with an inter-stimulus interval of 55-65 seconds, duration of 30 msecs and frequency of 5000 Hz. The same stimulus conditions were used for test days, which consisted of a 25 trial baseline, injection with mouse TCAP-1 (with amidation signal)[SEQ. ID. NO. 40] or vehicle (0.25 μl/side, flow rate 0.5 μl/min), and testing for a further 60 trials post-drug. Each rat received vehicle treatment on the first test day then TCAP-1 (e.g. mouse TCAP-1) in a random and counter balanced fashion in subsequent test days, spaced 48 h apart. On the final test day, all rats again received vehicle treatment. Following histological analysis of cannulae placements, the data of eight rats was retained for statistical analysis.
From the data, rats were divided into high and low anxiety groups depending upon their treatment/baseline ratio for the vehicle. Animals that scored less than one were considered low anxiety, those scoring more than one were considered high anxiety. There were four animals in each anxiety group.

Gn11 cells [2] = assay: Flow cytometry DNA content analysis, Gn11 cells; assay type: cell-based, mouse; details: after 24 hours
Experimental: as §1

Gn11 cells [3] = assay: Total protein, BCA protein assay, Gn11 cells; assay type: cell-based, mouse; details: 1, 10 and 100 nM, after 120 minutes
Experimental: as §1

Gn11 cells [4] = assay: MTT assay, Gn11 cells; assay type: cell-based, mouse; details: 48 hours
Experimental: as §1

[5] = 16 hours, relative to untreated control
[6] = treated compared to untreated cells
[7] = micro injected into the basolateral amygdala, 3, 30, 300 pmoles

In the case of “TCAP-1: synthetic mouse teneurin-1 C-terminal associated peptide, SEQ. ID. NO: 37 or 38, with amidation signal (QQLLGTGRVQGYDGYFVLSVEQYLELSDSANNIHFMRQSEIGRR-NH2)”, the “increase of cAMP levels over the vehicle-treated cells” value (Gn11 cells [1]; 1 nM, 15 minutes) is reported as 45%, the “cAMP accumulation at 1 nM (in words)” value (Gn11 cells [1]; 1 nM, FIG. 25A/B) is reported as “increased cAMP” and the “cAMP accumulation at 10 nM (in words)” value (Gn11 cells [1]; 10 nM, FIG. 25A) is reported as “without effect”. For the same substance, the “decrease of cAMP accumulation from control cells” value (Gn11 cells [1]; 100 nM, 15 minutes) was 40%, the “cAMP accumulation at 100 nM (in words)” value (Gn11 cells [1]; 100 nM, FIG. 25A) was “decreased (p<0.05) cAMP” and the “Fold change AKAP8 (A kinase anchor protein 8)” value (N38 hypothalamic cells; [5]) was 1.58 fold. For the same substance, the “Fold change AKAP95 (A kinase anchor protein 95)” value (N38 hypothalamic cells; [5]) was 0.60 fold, the “Fold change ALK3 (Bone morphogenic protein receptor)” value (N38 hypothalamic cells; [5]) was 0.60 fold and the “Fold change AP4S1 (Adaptor related protein complex)” value (N38 hypothalamic cells; [5]) was 1.52 fold. For the same substance, the “Fold change ARF1 (ADP ribosylation factor 1)” value (N38 hypothalamic cells; [5]) was 0.63 fold, the “Fold change BARK1 (β adrenergic receptor kinase 1)” value (N38 hypothalamic cells; [5]) was 0.61 fold and the “Fold change BMP4 (Bone morphogenic protein-4)” value (N38 hypothalamic cells; [5]) was 0.52 fold. For the same substance, the “Fold change CAII (Casein kinase II)” value (N38 hypothalamic cells; [5]) was 0.61 fold, the “Fold change CAMIII (Calmodulin III)” value (N38 hypothalamic cells; [5]) was 0.53 fold and the “Fold change CD95 (Fas antigen)” value (N38 hypothalamic cells; [5]) was 0.61 fold. For the same substance, the “Fold change CLCN3 (Chloride channel protein 3)” value (N38 hypothalamic cells; [5]) was 1.66 fold, the “Fold change CLM2-B (Cytohesin-2)” value (N38 hypothalamic cells; [5]) was 0.63 fold and the “Fold change CRD-BP (CRD-binding protein)” value (N38 hypothalamic cells; [5]) was 0.59 fold. The “Fold change CREMβ1 (cAMP-responsive element modulator)” value (N38 hypothalamic cells; [5]) was 1.61 fold, the “Fold change DIP1/2 (DAB2 interacting protein)” value (N38 hypothalamic cells; [5]) was 0.68 fold and the “Fold change ERK1 (Mitogen activated protein kinase)” value (N38 hypothalamic cells; [5]) was 0.64 fold. For the same substance, the “Fold change FNBX (Ferredoxin-NADP reductase)” value (N38 hypothalamic cells; [5]) was 1.61 fold, the “Fold change GAS5 (Growth arrest specific transcript)” value (N38 hypothalamic cells; [5]) was 0.46 fold and the “Fold change GBP3 (Guanylate binding protein)” value (N38 hypothalamic cells; [5]) was 0.63 fold. The “Fold change GDAP10 (Ganglioside induced diff. protein 10)” value (N38 hypothalamic cells; [5]) was 1.62 fold, the “Fold change GP25L2 (gp25L brings cargo forward from ER)” value (N38 hypothalamic cells; [5]) was 1.53 fold and the “Fold change GR (Glucocorticoid receptor)” value (N38 hypothalamic cells; [5]) was 0.66 fold. For the same substance, the “Fold change IL1R (Interleukin 1 receptor)” value (N38 hypothalamic cells; [5]) was 0.60 fold, the “Fold change INI1B (Integrase interacting protein 1B)” value (N38 hypothalamic cells; [5]) was 0.48 fold and the “Fold change INOS (Inducible nitric oxide synthetase)” value (N38 hypothalamic cells; [5]) was 1.50 fold. The “Fold change MKI67 (Cell cycle protein regulator)” value (N38 hypothalamic cells; [5]) was 1.70 fold, the “Fold change MMP1 (Matrix metalloproteinase 1)” value (N38 hypothalamic cells; [5]) was 0.55 fold and the “Fold change MMP10 (Matrix metalloproteinase 10)” value (N38 hypothalamic cells; [5]) was 0.59 fold. The “Fold change MOP3 (Circadian rhythm regulator)” value (N38 hypothalamic cells; [5]) was 1.57 fold, the “Fold change P202 (202 interferon activatable protein)” value (N38 hypothalamic cells; [5]) was 0.61 fold and the “Fold change P204 (Interferon activatable protein)” value (N38 hypothalamic cells; [5]) was 1.85 fold. The “Fold change PCDHγ (protocadherin γ)” value (N38 hypothalamic cells; [5]) was 0.42 fold, the “Fold change PDE6A (cGMP Phosphodiesterase α)” value (N38 hypothalamic cells; [5]) was 1.68 fold and the “Fold change PPAN (Peter Pan homologue)” value (N38 hypothalamic cells; [5]) was 0.62 fold. The “Fold change PTK7 (Receptor protein tyrosine kinase)” value (N38 hypothalamic cells; [5]) was 1.53 fold, the “Fold change RAB10 (Ras oncogene homologue)” value (N38 hypothalamic cells; [5]) was 1.62 fold and the “Fold change SDPR (Serum deprivation response protein)” value (N38 hypothalamic cells; [5]) was 0.57 fold. The “Fold change SLC6A4 (Serotonin transporter)” value (N38 hypothalamic cells; [5]) was 1.53 fold, the “Fold change SSG1 (Steroid sensitive gene 1)” value (N38 hypothalamic cells; [5]) was 0.62 fold and the “Fold change ST7 (Suppressor of tumourigenicity)” value (N38 hypothalamic cells; [5]) was 1.97 fold. For the same substance, the “Fold change TTF-1IP (TTF-1 interacting peptide)” value (N38 hypothalamic cells; [5]) was 0.50 fold, the “Fold change YIPID (Rab-mediated membrane transport)” value (N38 hypothalamic cells; [5]) was 1.88 fold and the “number of genes showing 1.5 fold down-regulation” value (N38 hypothalamic cells; [6]) was 166 genes. The “number of genes showing up-regulation” value (N38 hypothalamic cells; [6]) was 35 genes, the acoustic startle response (rats; administration into the lateral ventricle or amygdala of rats) was “normalized the acoustic startle response” and the “relation of effect on startle response to baseline startle response” value (rats; amygdala-injected, FIG. 24) was “inversely proportional to the baseline startle response”. The “startle magnitude, animals with high treatment-to-baseline ratio (>1)” value (rats; [7]) was “significant (p<0.05) decrease”, the “startle magnitude, animals with low treatment-to-baseline ratio (<1)” value (rats; [7]) was “significant (p, 0.05) and does dependent increase” and the “incidence of G1 phase at 1 nM” value (Gn11 cells [2]; 1 nM) was “reduced (p<0.05) the incidence of G1 phase”. For the same substance, the “incidence of G1 phase at 100 nM” value (Gn11 cells [2]; 100 nM) was “increased (p<0.05) G1 phase”, the total protein concentration (Gn11 cells [3]) was “significant increase; also recorded: stimulated protein synthesis” and the “MTT activity (mitochondrial activity) at 1 nM” value (Gn11 cells [4]; 1 nM) was “significant (p<0.05) increase; also recorded: increased MTT activity”. The “MTT activity (mitochondrial activity) at 100 nM” value (Gn11 cells [4]; 100 nM) was “decrease; also recorded: decreased (p<0.05) MTT activity”.
